Legend:
[1] = test system: C. elegans expressing human alpha-synuclein in the body wall muscle; assay: C. elegans lifespan assay, alpha-synuclein strain; format: in vivo, Caenorhabditis elegans; conditions: p<0.05 DMSO vs. Tacrolimus
Procedure: (§1) Tacrolimus was tested in a number of disease models using the nematode worm, Caenorhabditis elegans, in which aggregate-prone proteins associated with neurodegenerative diseases are expressed in certain cell types. The effect of tacrolimus was determined by measuring the lifespan of worms in the presence and absence of tacrolimus, using the following general methodology. All of the worms tested using these assays also contained, in addition to the transgene expressing the disease-related protein, a mutation in the bus-5 gene which confers drug-sensitivity.
(§2) C. elegans cultures were synchronised by incubating an asynchronous culture in basic sodium hypochlorite solution to kill everything but the bleach-resistant mature eggs. The eggs were added on to agar plates and then allowed to hatch and develop in the presence of the test compound (or vehicle) and bacterial food source. […] From this point on, each ageing population was inspected at regular intervals (e.g. daily) and viability assessed by counting the number of dead worms.
(§3) The cumulative number of dead worms for each population was used to generate a survival/viability plot to determine chronological lifespan (CLS). Survival was analysed using the Kaplan-Meier log-rank survival analysis method, using the Online Application for Survival (OASIS; see http://sbi.postech.ac.kr/oasis). […]

[2] = test system: primary motor neuron (MN) cultures generated from rat spinal cord; assay: Motor neuron culture with Aβ1-42 insult: neurite network and survival (MAP-2 staining); format: cell-based; conditions: 24 hours after 20 μM Aβ1-42 insult, treated 1 hour before
Procedure: Primary motor neuron (MN) cultures generated from rat spinal cord were treated with 20 μM amyloid beta 1-42 peptide (Aβ1-42). […] This model was used to determine the effect of tacrolimus on TDP-43 toxicity in motor neurons. […] After permeabilisation with 0.1% saponin, one group of cells was incubated for 2 hours with a) mouse monoclonal anti-microtubule-associated-protein 2 (MAP-2) antibody, and b) rabbit polyclonal anti-TDP-43 antibody. The anti-MAP-2 antibody was used to determine MN survival (number of stained MN) and MN neurite length. The anti-TDP-43 antibody was used to examine extranuclear TDP-43: the area of extranuclear TDP-43 staining per MN was calculated by normalising to the number of MAP-2 positive cells.

[3] = test system: FET3, SOD1, SOD2, COX9 transcripts; assay: Yeast transcript analysis by RT-qPCR; format: cell-based, Saccharomyces cerevisiae; conditions: 10 μg/ml tacrolimus, cultures aged 3 days, normalised to U4 snRNA
Procedure: A pre-culture was diluted 1/100 into synthetic complete medium and tacrolimus was added to a final concentration of 10 μg/ml. (An equivalent volume of DMSO was added to a parallel culture as a control.) The cultures were then allowed to age for 3 days, before RNA extraction and transcript analysis by reverse transcription-qPCR (RT-qPCR). (Transcript levels are normalised to that of the U4 snRNA.)

[4] = test system: C. elegans expressing wild-type human SOD-1 in the body wall muscle; assay: C. elegans lifespan assay, wild-type SOD-1 strain; format: in vivo, Caenorhabditis elegans
Procedure: as §1
as §2, with “eggs.” for “eggs. The eggs were added on to agar plates and then allowed to hatch and develop in the presence of the test compound (or vehicle) and bacterial food source.”
as §3
The effect of tacrolimus on C. elegans expressing wild-type or mutant human SOD-1 in the body wall muscle was determined. […]

[5] = test system: unilaterally 6-OHDA-lesioned rats; assay: Amphetamine-induced rotational asymmetry in unilaterally 6-OHDA-lesioned rats; format: in vivo, rat; conditions: 1 mg/kg s.c. 6 days/week, by 6 months, compared to baseline; p<0.05 vs. vehicle at 6 months
Excerpt: The objective of this study was to investigate the effect of chronic subcutaneous (s.c) tacrolimus treatment in an aged rat model of Parkinson's disease. Lesion of dopaminergic projections was created by unilateral injection of 6-hydroxydopamine (6-OHDA) in the right medial forebrain bundle (MFB), causing a widespread de-afferentation of substantia nigra pars compacta (SNc) and ventral tegmental area (VTA) terminal fields. The animals can then be monitored for amphetamine-induced rotation asymmetry behaviour: because the lesion is unilateral, asymmetric movement is observed. The degree to which a drug treatment is able to counteract the effects of the lesion can be measured by the reduction in the asymmetry of movement (i.e. the number of clockwise (CW) rotations vs. the number of counterclockwise (CCW) rotations). 50 female Fischer rats aged 18 months were stereotactically injected with 4 μl […] 6-OHDA into the right MFB. […] Motor asymmetry was monitored in automated rotometer bowls (TSE Systems, Germany) for 120 minutes after injection of amphetamine (2.5 mg/kg s.c.). The net rotation asymmetry score for amphetamine test was calculated by subtracting contralateral turns from the ipsilateral turns to the lesion side.

TDP-43(Q331K) mice = assay: Rotarod testing of TDP-43(Q331K) transgenic mice; format: in vivo, mouse; conditions: tacrolimus 0.25, 1.25 and 2.5 mg/kg p.o. 6 days a week for 70 weeks vs. vehicle

Compound: C=CC[C@@H]1/C=C(\C)C[C@H](C)C[C@H](OC)[C@H]2O[C@@](O)(C(=O)C(=O)N3CCCC[C@H]3C(=O)O[C@H](/C(C)=C/[C@@H]3CC[C@@H](O)[C@H](OC)C3)[C@H](C)[C@@H](O)CC1=O)[C@H](C)C[C@@H]2OC [tacrolimus, Tacrolimus]
- lifespan [1]: significantly increasing the lifespan
- motor neuron neurite network ([2]; p<0.05 all concentrations vs. Aβ): concentration-dependent increase
- motor neuron survival ([2]; p<0.05 for 100 nM, 1 μM vs. Aβ): concentration-dependent increase
- expression of transcripts FET3, SOD1, SOD2 and COX9 [3]: upregulated
- lifespan ([4]; 10 μg/ml in NGM agar, p<0.05 DMSO vs. Tacrolimus): significant increase in lifespan
- increase in lifespan when bec-1 knocked down by RNAi ([4]; bec-1 RNAi, p>0.05 vs. bec-1 RNAi DMSO): virtually abolished
- amphetamine-induced rotational asymmetry [5]: significant reduction in rotational asymmetry
- progression of motor decline (rotarod latency) (TDP-43(Q331K) mice): delays the progression of motor decline

Reference: US20180085356A1, “METHOD OF TREATING DISEASE CHARACTERISED BY PROTEIN AGGREGATE DEPOSITION IN NEURONAL CELLS” (CHRONOS THERAPEUTICS LIMITED, priority 2013, published 2018)
